Laboratory results taken from patent publication US11484539B2, “Compounds and their uses for alleviating menopause-associated symptoms” (Estetra SPRL, priority 2018, dated 2022).

Tested on: post-menopausal women
Experiment: Weekly frequency of moderate to severe VMS, dose-finding study
Format: in vivo
Conditions: for Difference with placebo, LS adjusted mean, absolute change in weekly frequency of moderate to severe VMS / Difference with placebo, LS adjusted mean, relative change in weekly frequency of moderate to severe VMS: 10 mg E4 vs placebo; for Differences with placebo (including ineffective doses 2.5 mg and 5 mg), relative change in weekly frequency of moderate to severe VMS, LS adjusted mean / Differences with placebo (including ineffective doses 2.5 mg and 5 mg), relative change in weekly frequency of moderate to severe VMS, p_value: 10.0 mg vs 0 mg; for Relative change in weekly frequency of moderate to severe VMS, LS adjusted mean: analysis with placebo grouped with 2.5 and 5 mg; for LS adjusted mean change from baseline in weekly frequency of moderate to severe VMS / LS adjusted mean relative change (%) from baseline in weekly frequency of moderate to severe VMS: 15 mg E4
Source text: To determine the Minimum Effective Dose (MED), firstly the selection criteria required that patients presented at least 7 moderate to severe VMS/day or at least 50 moderate to severe VMS/week in the week preceding randomization. Secondly, a placebo group was included in a double-blind fashion. Thirdly, the total patient number was such that statistical significance could be obtained between separate arms of the study. Fourthly, the absolute change from baseline in weekly frequency of moderate to severe VMS was taken into account. An analysis of covariance (ANCOVA) was performed based on the untransformed change in weekly frequency of moderate to severe VMS from baseline. Finally, the change in severity from baseline was evaluated. For this, the Severity Scoring System of VMS was documented by the subjects as follows: • a score of Mild (1) for a sensation of heat without sweating; • a score of Moderate (2) for a sensation of heat with sweating/the subject is able to continue activity; and • a score of Severe (3) for a sensation of heat with sweating/which causes cessation of activity.
Enrolment was approximately 18 months. Individual subject participation was up to 27 weeks: up to 6 weeks pre-screening and washout, up to 4 weeks screening and run-in period, up to 91 days (13 weeks) of E4/placebo treatment followed by 2 weeks (14 days) of progestin therapy and a Follow up visit 1 week after completion of progestin therapy in non-hysterectomised subjects only.
To define the minimum effective dose (MED) of the oral dose of E4 by evaluating changes in frequency and in severity of moderate to severe vasomotor symptoms (VMS).
This was a prospective, multicentre, randomised, placebo-controlled, double-blinded, dose-finding study.
Eligible subjects were hysterectomised and non-hysterectomised post-menopausal women aged 40 to 65 years, inclusive, presenting at least 7 moderate to severe hot flushes/day or at least 50 moderate to severe hot flushes/week.
The subjects have met all of the following inclusion criteria at the randomization visit. These criteria were assessed during the screening period: • 1. Women aged 40 to 65 years, inclusive, presenting at least 7 moderate to severe hot flushes/day or at least 50 moderate to severe hot flushes/week in the week preceding randomization. • 2. Body Mass Index (BMI) between 18.0 and 35.0 kg/m^2, inclusive. • 3. Post-menopausal status defined as levels of follicle stimulating hormone (FSH) >40 IU/L and: • amenorrhoea for at least 12 consecutive months or, • amenorrhoea for at least 6 months with estradiol (E2)<20 pg/mL or, • at least 6 weeks post-surgical bilateral oophorectomy with or without hysterectomy with a copy of the pathology report or a statement on letterhead from the subject's physician documenting both ovaries were removed is required. • 4. For non-hysterectomised women: intact uterus with bi-layer endometrial thickness […] on TVUS. • 5. Negative pregnancy test. • 6. Good physical and mental health, in the judgement of the Principal Investigator (PI), on the basis of medical, surgical and gynaecological history, physical examination, gynaecological examination, clinical laboratory, and vital signs. • 7. Subject has provided signed and dated written informed consent before admission to the study. • 8. Subject is able to understand and comply with the protocol requirements, instructions, and protocol-stated restrictions. Exclusion Criteria:
All treatments (Estetrol, hereinafter, E4, [2.5 mg, 5 mg, 10 mg, 15 mg] capsule) were administered once daily (QD) per os for at least 12 consecutive weeks until the last biological assessments (Day 91 maximum) had been performed.
In order to analyse the data recorded in this study, treatment groups have been compared using an ANCOVA (analysis of covariance) with respect to the change in weekly frequency of moderate to severe VMS from baseline to weeks 4 and 12. […]

[1] = week 4, ANCOVA with study centre
[2] = week 12, ANCOVA with study centre

SMILES: C[C@]12CC[C@@H]3c4ccc(O)cc4CC[C@H]3[C@@H]1[C@@H](O)[C@@H](O)[C@@H]2O [E4, 1,3,5 (10)-estratrien-3,15alpha,16alpha,17beta-tetrol]
- Mean change from baseline in weekly frequency of moderate to severe VMS (10 mg E4 QD per os, week 8): −44.46
- Relative change (% from baseline) in weekly frequency of moderate to severe VMS, mean (10 mg E4 QD per os, week 8): −68%
- Mean change from baseline in weekly frequency of moderate to severe VMS (10 mg E4 QD per os, week 9): −45.19
- Relative change (% from baseline) in weekly frequency of moderate to severe VMS, mean (10 mg E4 QD per os, week 9): −69%
- Mean change from baseline in weekly frequency of moderate to severe VMS (10 mg E4 QD per os, week 10): −45.93
- Relative change (% from baseline) in weekly frequency of moderate to severe VMS, mean (10 mg E4 QD per os, week 10): −70%
- Mean change from baseline in weekly frequency of moderate to severe VMS (10 mg E4 QD per os, week 11): −45.90
- Relative change (% from baseline) in weekly frequency of moderate to severe VMS, mean (10 mg E4 QD per os, week 11): −70%
- Mean change from baseline in weekly frequency of moderate to severe VMS (10 mg E4 QD per os, week 12): −47.21
- Relative change (% from baseline) in weekly frequency of moderate to severe VMS, mean (10 mg E4 QD per os, week 12): −72%
- Difference with placebo, LS adjusted mean, absolute change in weekly frequency of moderate to severe VMS [1]: −1.571
- Difference with placebo, LS adjusted mean, relative change in weekly frequency of moderate to severe VMS [1]: −0.05376
- Difference with placebo, LS adjusted mean, absolute change in weekly frequency of moderate to severe VMS (week 4, without site effect): −2.222
- Difference with placebo, LS adjusted mean, relative change in weekly frequency of moderate to severe VMS (week 4, without site effect): −0.06517
- Difference with placebo, LS adjusted mean, absolute change in weekly frequency of moderate to severe VMS [2]: −2.103
- Difference with placebo, LS adjusted mean, relative change in weekly frequency of moderate to severe VMS [2]: −0.05804
- Difference with placebo, LS adjusted mean, absolute change in weekly frequency of moderate to severe VMS (week 12, without site effect): −2.603
- Difference with placebo, LS adjusted mean, relative change in weekly frequency of moderate to severe VMS (week 12, without site effect): −0.06624
- Differences with placebo (including ineffective doses 2.5 mg and 5 mg), relative change in weekly frequency of moderate to severe VMS, LS adjusted mean (week 4): −0.07645
- Differences with placebo (including ineffective doses 2.5 mg and 5 mg), relative change in weekly frequency of moderate to severe VMS, p_value (week 4): 0.2615
- Differences with placebo (including ineffective doses 2.5 mg and 5 mg), relative change in weekly frequency of moderate to severe VMS, LS adjusted mean (week 12): −0.08276
- Differences with placebo (including ineffective doses 2.5 mg and 5 mg), relative change in weekly frequency of moderate to severe VMS, p_value (week 12): 0.1798
- Relative change (% from baseline) in weekly frequency of moderate to severe VMS, mean (10 mg, Week 12): −72%
- Relative change (% from baseline) in weekly frequency of moderate to severe VMS, mean (10 mg, week 0): 0%
- Relative change (% from baseline) in weekly frequency of moderate to severe VMS, mean (10 mg, week 1): −21%
- Relative change (% from baseline) in weekly frequency of moderate to severe VMS, mean (10 mg, week 2): −37%
- Relative change (% from baseline) in weekly frequency of moderate to severe VMS, mean (10 mg, week 3): −48%
- Relative change (% from baseline) in weekly frequency of moderate to severe VMS, mean (10 mg, week 4): −55%
- Relative change in weekly frequency of moderate to severe VMS, LS adjusted mean (10 mg, week 4): −0.5442
- Relative change (% from baseline) in weekly frequency of moderate to severe VMS, mean (10 mg, week 5): −60%
- Relative change (% from baseline) in weekly frequency of moderate to severe VMS, mean (10 mg, week 6): −65%
- Relative change (% from baseline) in weekly frequency of moderate to severe VMS, mean (10 mg, week 7): −66%
- Relative change (% from baseline) in weekly frequency of moderate to severe VMS, mean (10 mg, week 8): −68%
- Relative change (% from baseline) in weekly frequency of moderate to severe VMS, mean (10 mg, week 9): −69%
- Relative change (% from baseline) in weekly frequency of moderate to severe VMS, mean (10 mg, week 10): −70%
- Relative change (% from baseline) in weekly frequency of moderate to severe VMS, mean (10 mg, week 11): −70%
- Relative change in weekly frequency of moderate to severe VMS, LS adjusted mean (10 mg, week 12): −0.7008
- LS adjusted mean change from baseline in weekly frequency of moderate to severe VMS [1]: −43.6
- LS adjusted mean relative change (%) from baseline in weekly frequency of moderate to severe VMS [1]: -64.7%
- LS adjusted mean change from baseline in weekly frequency of moderate to severe VMS (week 4, without site effect): −44.36
- LS adjusted mean relative change (%) from baseline in weekly frequency of moderate to severe VMS (week 4, without site effect): -66%
- LS adjusted mean change from baseline in weekly frequency of moderate to severe VMS [2]: −53.83
- LS adjusted mean relative change (%) from baseline in weekly frequency of moderate to severe VMS [2]: -80.1%
- LS adjusted mean change from baseline in weekly frequency of moderate to severe VMS (week 12, without site effect): −54.91
- LS adjusted mean relative change (%) from baseline in weekly frequency of moderate to severe VMS (week 12, without site effect): -82.3%
- Mean change from baseline in weekly frequency of moderate to severe VMS (15 mg E4 QD per os, week 1): −14.86
- Relative change (% from baseline) in weekly frequency of moderate to severe VMS, mean (15 mg E4 QD per os, week 1): −22%
- Mean change from baseline in weekly frequency of moderate to severe VMS (15 mg E4 QD per os, week 2): −29.19
- Relative change (% from baseline) in weekly frequency of moderate to severe VMS, mean (15 mg E4 QD per os, week 2): −46%
- Mean change from baseline in weekly frequency of moderate to severe VMS (15 mg E4 QD per os, week 3): −36.30
- Relative change (% from baseline) in weekly frequency of moderate to severe VMS, mean (15 mg E4 QD per os, week 3): −57%
